Measured values taken from patent US20090247519A1, “AMINO-ETHYL-AMINO-ARYL (AEAA) COMPOUNDS AND THEIR USE” (priority 2006, published 2009).

Target: T1, Human full length PKD2 (Homo sapiens, UniProt Q9BZL6)
T1 construct: Human full length PKD2 at ˜100 μg/mL was purchased from Upstate Ltd; purchased Upstate Ltd 14-506
T1 sequence (Q9BZL6 1-878): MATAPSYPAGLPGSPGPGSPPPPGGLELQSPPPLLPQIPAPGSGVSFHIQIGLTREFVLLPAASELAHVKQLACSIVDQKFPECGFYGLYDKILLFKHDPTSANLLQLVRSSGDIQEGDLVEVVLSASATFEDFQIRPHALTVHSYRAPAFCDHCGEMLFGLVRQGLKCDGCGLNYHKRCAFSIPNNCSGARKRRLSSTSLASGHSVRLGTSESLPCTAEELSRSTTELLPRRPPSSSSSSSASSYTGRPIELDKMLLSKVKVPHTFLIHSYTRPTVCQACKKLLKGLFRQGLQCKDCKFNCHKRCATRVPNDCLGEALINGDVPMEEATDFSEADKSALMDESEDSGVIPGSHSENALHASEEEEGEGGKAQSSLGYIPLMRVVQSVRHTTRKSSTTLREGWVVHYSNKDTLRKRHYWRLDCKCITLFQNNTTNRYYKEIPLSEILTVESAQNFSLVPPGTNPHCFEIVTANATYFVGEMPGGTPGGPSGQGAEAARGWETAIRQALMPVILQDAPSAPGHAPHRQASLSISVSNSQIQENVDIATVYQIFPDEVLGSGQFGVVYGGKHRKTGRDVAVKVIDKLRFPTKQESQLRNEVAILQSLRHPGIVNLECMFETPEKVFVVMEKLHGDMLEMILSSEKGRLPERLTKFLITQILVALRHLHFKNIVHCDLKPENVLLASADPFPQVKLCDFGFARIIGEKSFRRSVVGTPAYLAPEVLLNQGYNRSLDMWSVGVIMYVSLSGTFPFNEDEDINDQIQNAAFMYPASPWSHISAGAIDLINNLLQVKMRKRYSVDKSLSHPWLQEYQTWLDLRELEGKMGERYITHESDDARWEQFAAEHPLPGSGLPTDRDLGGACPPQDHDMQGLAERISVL
Assay: PKD2 (Human Full Length) Enzyme Activity Assay (IMAP fluorescence polarisation)
Format: biochemical
Settings: 10 point dose-response
Procedure: PKD2 (Human Full Length) Enzyme Activity Assay
Kinase Assay Reaction Buffer: This consisted of 0.22 μM filtered 25 mM HEPES and 10 mM MgCl2 pH 7.5.
Kinase: Human full length PKD2 at ˜100 μg/mL was purchased from Upstate Ltd (Product code 14-506), and obtained from aliquots stored at −70° C. It was prepared with a final concentration of […] by diluting 1:300 in Reaction Buffer (30 μL per 9 mL-5 mL per plate with an additional 4 mL dead volume) and vortexing prior to use. It is necessary to check this concentration regularly in case of enzyme degradation. […]
5 μL Kinase/Substrate in Reaction Buffer was added to ‘test’ and all ‘control’ wells of a Corning black low binding 384 well (90 μL volume) microplate to give 0.1 μg/mL and 2 μM reaction concentration respectively. […] The fluorescence polarisation of the peptide substrate was measured using an analyst (Molecular devices) microplate reader with a single read at Ex485 Em535 (Analyst settings: Z Height 5 mm, G Factor 0.95, Reads/well 1, Integration 100000 μs, Gain Sensitivity 2).
Percentage inhibition was calculated based on activity of the test sample minus the average values in the blank wells relative to the average values measured in control wells minus the average values in the blank wells.
IC50 values were calculated from 10 point dose sigmoid ‘dose-response’ curves using XIfit software (IDBS inc, USA). […]

IC50: 4.1 nM
Compound: CC[C@@H](N)CN(C)c1ccnc(-c2cc(Cl)ccc2O)n1 [XX-276, 2-{4-[((R)-2-Amino-butyl)-methyl-amino]-pyrimidin-2-yl}-4-chloro-phenol]
